Reference: ChEMBL document CHEMBL3421597, “(±) cis-Bisamido epoxides: A novel series of potent FXIII-A inhibitors” (Eur J Med Chem, 2015)
The source made the active and inactive calls. The rule behind the calls is not given here.

Assays:
[1] = target: T1, Coagulation factor XIII A chain (Homo sapiens, UniProt P00488); assay: Inhibition of thrombin-activated F13-A (unknown origin) in plasma assessed as inhibition of fibrin clot formation after 7 mins by biotin incorporation assay
T1 sequence (P00488 whole entry): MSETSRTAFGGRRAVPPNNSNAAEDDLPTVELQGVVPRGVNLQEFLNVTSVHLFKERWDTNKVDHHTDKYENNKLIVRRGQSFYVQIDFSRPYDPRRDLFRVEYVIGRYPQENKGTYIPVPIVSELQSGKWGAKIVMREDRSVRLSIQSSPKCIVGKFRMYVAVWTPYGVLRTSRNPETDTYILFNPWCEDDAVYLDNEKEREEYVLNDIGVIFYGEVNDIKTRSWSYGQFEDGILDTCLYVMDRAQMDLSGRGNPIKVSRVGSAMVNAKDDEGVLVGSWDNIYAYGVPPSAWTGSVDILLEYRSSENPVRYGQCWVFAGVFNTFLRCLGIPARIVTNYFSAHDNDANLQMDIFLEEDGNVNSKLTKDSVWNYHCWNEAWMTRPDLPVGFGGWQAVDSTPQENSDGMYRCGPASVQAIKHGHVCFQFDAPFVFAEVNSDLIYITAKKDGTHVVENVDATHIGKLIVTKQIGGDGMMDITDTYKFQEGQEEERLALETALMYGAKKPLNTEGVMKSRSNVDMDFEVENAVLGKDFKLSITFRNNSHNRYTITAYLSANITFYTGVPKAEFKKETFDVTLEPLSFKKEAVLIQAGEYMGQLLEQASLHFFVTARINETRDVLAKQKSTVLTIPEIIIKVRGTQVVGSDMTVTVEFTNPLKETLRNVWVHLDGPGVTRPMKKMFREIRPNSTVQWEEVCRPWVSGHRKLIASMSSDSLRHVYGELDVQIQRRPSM

[2] = target: T2, Coagulation factor XIII A chain (Homo sapiens) (UniProt P00488); assay: Inhibition of F13-A in human plasma assessed as inhibition of fibrin clot formation at 1 X 10^-6 M by biotin incorporation assay; conditions: values are per cent of control
T2 sequence (whole entry): T1 sequence (P00488 whole entry)

[3] = target: T2, Coagulation factor XIII A chain (Homo sapiens); assay: Inhibition of F13-A in human plasma assessed as inhibition of fibrin clot formation at 2 X 10^-7 M by biotin incorporation assay; conditions: values are per cent of control
[4] = target: T2, Coagulation factor XIII A chain (Homo sapiens); assay: Inhibition of F13-A in human plasma assessed as inhibition of fibrin clot formation at 7.5 X 10^-8 M by biotin incorporation assay; conditions: values are per cent of control
[5] = target: T2, Coagulation factor XIII A chain (Homo sapiens); assay: Inhibition of F13-A in human plasma assessed as inhibition of fibrin clot formation at 2 X 10^-8 M by biotin incorporation assay; conditions: values are per cent of control
[6] = target: T2, Coagulation factor XIII A chain (Homo sapiens); assay: Inhibition of F13-A in human plasma assessed as inhibition of fibrin clot formation at 1 X 10^-6 M by biotin incorporation assay in presence of 10 X 10^-3 mol/l reduced GSH; conditions: values are per cent of control
[7] = target: T2, Coagulation factor XIII A chain (Homo sapiens); assay: Inhibition of F13-A in human plasma assessed as inhibition of fibrin clot formation at 2 X 10^-7 M by biotin incorporation assay in presence of 10 X 10^-3 mol/l reduced GSH; conditions: values are per cent of control
[8] = target: T2, Coagulation factor XIII A chain (Homo sapiens); assay: Inhibition of F13-A in human plasma assessed as inhibition of fibrin clot formation at 7.5 X 10^-8 M by biotin incorporation assay in presence of 10 X 10^-3 mol/l reduced GSH; conditions: values are per cent of control
[9] = target: T2, Coagulation factor XIII A chain (Homo sapiens); assay: Inhibition of F13-A in human plasma assessed as inhibition of fibrin clot formation at 2 X 10^-8 M by biotin incorporation assay in presence of 10 X 10^-3 mol/l reduced GSH; conditions: values are per cent of control
[10] = target: Cathepsin S (Homo sapiens) (UniProt P25774); assay: Inhibition of cathepsin S (unknown origin) using Z-Val-Val-Arg-AMC as substrate at 100 uM measured every minute for 30 mins by fluorometric plate reader analysis
Sequence of Cathepsin S (Homo sapiens) (P25774 115-331 limits assumed): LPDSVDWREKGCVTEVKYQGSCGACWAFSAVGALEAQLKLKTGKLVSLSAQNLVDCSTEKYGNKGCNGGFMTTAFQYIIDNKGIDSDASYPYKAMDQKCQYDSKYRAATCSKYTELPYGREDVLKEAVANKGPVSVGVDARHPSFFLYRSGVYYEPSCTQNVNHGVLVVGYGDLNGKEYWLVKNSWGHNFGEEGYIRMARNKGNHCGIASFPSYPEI

Homo sapiens = organism: Homo sapiens; assay: Selectivity ratio, ratio of concentration required for inhibition of cathepsin S (unknown origin) to IC50 for F13-A (unknown origin)
[11] = target: T2, Coagulation factor XIII A chain (Homo sapiens); assay: Inhibition of F13-A (unknown origin) at 10^-6 mol/l in presence of 5 X 10^-3 mol/l DTT
[12] = target: T3, Protein-glutamine gamma-glutamyltransferase (Homo sapiens, UniProt P21980); assay: Inhibition of transglutaminase 2 (unknown origin)
T3 sequence (P21980 whole entry): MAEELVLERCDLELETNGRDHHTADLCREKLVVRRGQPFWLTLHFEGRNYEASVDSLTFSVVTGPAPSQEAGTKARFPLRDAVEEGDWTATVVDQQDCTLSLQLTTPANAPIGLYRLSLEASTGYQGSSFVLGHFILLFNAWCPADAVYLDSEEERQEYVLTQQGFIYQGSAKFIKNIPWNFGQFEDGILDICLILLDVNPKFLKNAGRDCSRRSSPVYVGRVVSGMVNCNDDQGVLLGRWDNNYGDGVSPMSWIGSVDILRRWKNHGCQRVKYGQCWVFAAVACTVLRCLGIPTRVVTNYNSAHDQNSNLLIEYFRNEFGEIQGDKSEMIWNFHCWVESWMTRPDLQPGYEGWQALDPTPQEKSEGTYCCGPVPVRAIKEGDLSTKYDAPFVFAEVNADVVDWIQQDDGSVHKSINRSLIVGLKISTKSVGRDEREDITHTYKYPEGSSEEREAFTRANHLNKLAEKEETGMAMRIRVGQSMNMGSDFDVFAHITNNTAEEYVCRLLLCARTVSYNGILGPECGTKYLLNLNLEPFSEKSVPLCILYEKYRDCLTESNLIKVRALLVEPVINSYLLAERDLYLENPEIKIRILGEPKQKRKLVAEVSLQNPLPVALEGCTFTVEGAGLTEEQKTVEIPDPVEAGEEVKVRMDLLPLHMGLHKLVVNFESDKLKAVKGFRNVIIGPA

[13] = target: T1, Coagulation factor XIII A chain; assay: Inhibition of F13-A in human plasma assessed as inhibition of fibrin clot formation by biotin incorporation assay in presence of 1 mM reduced GSH

Row | SMILES | IC50 [1] [nM] | residual activity [2] [%] | residual activity [3] [%] | residual activity [4] [%] | residual activity [5] [%] | residual activity [6] [%] | residual activity [7] [%] | residual activity [8] [%] | residual activity [9] [%] | inhibition [10] | Selectivity ratio (Homo sapiens) | inhibition [11] | IC50 [12] [nM] | IC50 [13] [nM]
1 | NC(=O)[C@H]1O[C@H]1C(=O)Nc1ccc(Oc2ccccc2)cc1 (racemic) | 55 | 6.1 | 32 | 66 | 96 | 7.8 | 47 | 78 | 90 | inactive | 10000 | Active | 46 | –
2 | NC(=O)[C@@H]1O[C@@H]1C(=O)Nc1ccc(CCNS(=O)(=O)c2ccccc2[N+](=O)[O-])cc1 (racemic) | 90 | – | – | – | – | – | – | – | – | inactive | 10000 | – | 88 | –
3 | NC(=O)[C@@H]1O[C@@H]1C(=O)Nc1ccc(Br)cc1 (racemic) | 130 | – | – | – | – | – | – | – | – | inactive | 10000 | – | 57 | –
4 | NC(=O)[C@@H]1O[C@@H]1C(=O)Nc1ccc(Br)c(Cl)c1 (racemic) | 4 | – | – | – | – | – | – | – | – | inactive | 10000 | – | 9.6 | –
5 | CCCCc1ccc(NC(=O)[C@@H]2O[C@@H]2C(N)=O)cc1 (racemic) | 220 | 27 | 76 | 99 | 93 | 34 | 79 | 104 | 102 | inactive | 10000 | – | 150 | –
6 | NC(=O)[C@H]1O[C@H]1C(=O)Nc1cccc(Oc2ccccc2)c1 (racemic) | 4 | – | – | – | – | – | – | – | – | inactive | 10000 | – | 50 | –
7 | NC(=O)[C@@H]1O[C@@H]1C(=O)Nc1ccccc1 (racemic) | 720 | – | – | – | – | – | – | – | – | inactive | 10000 | – | 1100 | –
8 | NC(=O)[C@H]1O[C@H]1C(=O)Nc1cccc(Cl)c1 (racemic) | 48 | – | – | – | – | – | – | – | – | inactive | 10000 | – | 48 | –
9 | NC(=O)[C@@H]1O[C@@H]1C(=O)Nc1ccc(Oc2ccc(N)cc2)cc1 (racemic) | 86 | – | – | – | – | – | – | – | – | inactive | 10000 | – | 48 | –
10 | NC(=O)[C@@H]1O[C@@H]1C(=O)Nc1ccc(Oc2ccc([N+](=O)[O-])cc2)cc1 (racemic) | 430 | – | – | – | – | – | – | – | – | inactive | 10000 | – | – | –
11 | NC(=O)[C@@H]1O[C@@H]1C(=O)Nc1ccc(Oc2ccc(NC(=O)c3ccc(F)cc3)cc2)cc1 (racemic) | 100 | – | – | – | – | – | – | – | – | inactive | 10000 | – | 150 | –
12 | C/C=C/C/C=C/CCC(=O)[C@H]1O[C@H]1C(N)=O [CERULENIN] | 4000 | – | – | – | – | – | – | – | – | – | – | – | – | 18000
13 | Cc1ccc(NC(=O)[C@H]2O[C@H]2C(N)=O)cc1C (racemic) | 110 | – | – | – | – | – | – | – | – | inactive | 10000 | – | 130 | –
